# Measurements published in patent publication US6822097B1, “Compounds and methods of uses” (Amgen, Inc., priority 2002, dated 2004).
# Structures can show the parent of a compound that is named as a salt.
row,SMILES,melting point
1,"O=c1[nH]c2ccccc2cc1-c1csc(NCCN2CCOCC2)n1 (as salt: hydrobromid) [Example 80, 3-{2-[(2-Morpholin-4-ylethyl)amino]-1,3-thiazol-4-yl}hydroquinolin-2-one hydrobromide]",237 to 239 °C
2,"Cc1onc(-c2ccccc2)c1-c1csc(-c2cc3ccccc3[nH]c2=O)n1 [Example 116, 3-[4-(5-Methyl-3-phenylisoxazol-4-yl)-1,3-thiazol-2-yl]hydroquinolin-2-one]",242 to 244 °C
3,"O=c1[nH]c2ccccc2c(O)c1-c1csc(-c2ccncc2)n1 [Example 5, 3-[2-(4-pyridyl)-4-thiazolyl]-4-hydroxy-2(1H)-quinolinone]",> 250 °C
4,"O=c1[nH]c2ccccc2cc1-c1csc(Nc2ccccn2)n1 (as salt: hydrobromid) [Example 67, 3-[2-(2-pyridylamino)-1,3-thiazol-4-yl]hydroquinolin-2-one]",307 to 312 °C (dec.)
5,"O=c1[nH]c2ccccc2cc1-c1nc(-c2cccc([N+](=O)[O-])c2)cs1 [Example 114, 3-[4-(3-Nitrophenyl)-1,3-thiazol-2-yl]hydroquinolin-2-one]",> 300 °C
6,"N#Cc1ccc(-c2csc(-c3cc4ccccc4[nH]c3=O)n2)cc1 [Example 113, 4-[2-(2-Oxo-3-hydroquinolyl)-1,3-thiazol-4-yl]benzenecarbonitrile]",> 300 °C
7,"O=c1[nH]c2ccccc2cc1-c1nc(-c2ccncc2)cs1 (as salt: salt) [Example 111, 3-(4-Pyridin-4-yl-thiazol-2-yl)-1H-quinolin-2-one]",> 300 °C
8,"COC(=O)c1cccc2[nH]c(=O)c(-c3csc(-c4ccncc4)n3)cc12 [Example 8, 1,2-Dihydro-2-oxo-3-[2-(4-pyridyl)-4-thiazolyl]-5-quinolinecarboxylic acid methyl ester]",> 250 °C
9,"COc1cc2[nH]c(=O)c(-c3csc(-c4ccncc4)n3)c(N)c2cc1OC [Example 19, 3-[2-(4-pyridyl)-4-thiazolyl]-4-amino-6,7-dimethoxy-2(1H)-quinolinone]",> 250 °C
10,"Nc1nc(-c2c(-c3ccccc3)c3ccccc3[nH]c2=O)cs1 [Example 23, 3-(2-Amino-4-thiazolyl)-4-phenyl-2(1H)-quinolinone]",> 220 °C
11,"O=c1[nH]c2ccccc2c(-c2ccccc2)c1-c1csc(-c2ccncc2)n1 [Example 4, 3-[2-(4-Pyridyl)-4-thiazolyl]-4-phenyl-2(1H)-quinolinone]",> 250 °C
12,"O=c1[nH]c2ccccc2cc1-c1csc(NCc2ccco2)n1 (as salt: hydrobromid) [Example 79, 3-{2-[(2-Furylmethyl)amino]-1,3-thiazol-4-yl}hydroquinolin-2-one hydrobromide]",221 to 224 °C (dec.)
13,"O=C(O)c1cccc2[nH]c(=O)c(-c3csc(-c4ccncc4)n3)cc12 [Example 10, 1,2-Dihydro-2-oxo-3-[2-(4-pyridyl)-4-thiazolyl]-5-quinolinecarboxylic acid]",> 250 °C
14,"O=c1[nH]c2ccccc2cc1-c1csc(Nc2cccnc2)n1 (as salt: hydrobromid) [Example 68, 3-[2-(3-Pyridylamino)-1,3-thiazol-4-yl]hydroquinolin-2-one]",> 300 °C
15,"O=c1[nH]c2cc3c(cc2cc1-c1csc(-c2ccncc2)n1)OCO3 [Example 18, 7-(2-(4-Pyridinyl)-1,3-thiazol-4-yl)[1,3]dioxolo[4,5-g]quinolin-6(5H)-one]",167 to 169 °C
16,"CN1CCN(C(=O)c2ccc3cc(-c4csc(N(C)S(=O)(=O)c5ccccc5)n4)c(=O)[nH]c3c2)CC1 [Example 8765, N-Methyl-N-{4-[7-(4-methyl-piperazine-1-carbonyl)-2-oxo-1,2-dihydro-quinolin-3-yl]-thiazol-2-yl}-benzenesulfonamide]",242 to 247 °C
17,"COc1ccc(CC(=O)Nc2nc(-c3cc4ccccc4[nH]c3=O)cs2)c(OC)c1 [Example 73, 2-(2,4-Dimethoxyphenyl)-N-[4-(2-oxo(3-hydroquinolyl))(1,3-thiazol-2-yl)]acetamide]",295 to 300 °C (dec.)
18,"O=c1[nH]c2ccccc2cc1-c1csc(NS(=O)(=O)c2ccc(OC(F)(F)F)cc2)n1 [Example 74, 3-[2-({[4-(Trifluoromethoxy)phenyl]sulfonyl}amino)-1,3-thiazol-4-yl]hydroquinolin-2-one]",> 300 °C
19,"CN1CCN(c2ccc3[nH]c(=O)c(-c4csc(-c5ccncc5)n4)c(N)c3c2)CC1 [Example 22, 3-[2-(4-Pyridyl)-4-thiazolyl]-4-amino-6-(4-methyl-1-piperazinyl)-2(1H)-quinolinone]",> 220 °C
20,"Nc1nc(-c2cc3ccccc3[nH]c2=O)cs1 (as salt: hydrobromid) [Example 66, 3-(2-Amino-1,3-thiazol-4-yl)hydroquinolin-2-one]",> 300 °C
21,"Nc1c(-c2csc(-c3ccncc3)n2)c(=O)[nH]c2ccccc12 (as salt: salt) [Example 6, 3-[2-(4-Pyridyl)-4-thiazolyl]-4-amino-2(1H)-quinolinone]",> 250 °C
22,"Cc1c(-c2csc(-c3ccncc3)n2)c(=O)[nH]c2ccccc12 [Example 3, 3-[2-(4-Pyridyl)-4-thiazolyl]-4-methyl-2(1H)-quinolinone]",> 250 °C
23,"COc1cc2[nH]c(=O)c(-c3csc(-c4cccnc4)n3)c(N)c2cc1OC [Example 20, 3-[2-(3-Pyridyl)-4-thiazolyl]-4-amino-6,7-dimethoxy-2(1H)-quinolinone]",> 250 °C
24,"CCN(CC)C(=O)c1cccc2[nH]c(=O)c(-c3csc(-c4ccncc4)n3)cc12 [Example 11, N,N-Diethyl-1,2-dihydro-2-oxo-3-[2-(4-pyridyl)-4-thiazolyl]-5-quinolinecarboxamide]",210 °C (dec.)
25,"COc1cccc(-c2csc(-c3cc4ccccc4[nH]c3=O)n2)c1 [Example 115, 3-[4-(3-Methoxyphenyl)-1,3-thiazol-2-yl]hydroquinolin-2-one]",279 to 282 °C
26,"O=c1[nH]c2ccccc2cc1-c1csc(Nc2ccncc2)n1 (as salt: hydrobromid) [Example 69, 3-[2-(4-Pyridylamino)-1,3-thiazol-4-yl]hydroquinolin-2-one]",> 300 °C

# Results, then the compound that gave them:
row,melting point,SMILES
1,> 300 °C,COC(=O)c1ccc2cc(-c3csc(N(C)S(=O)(=O)c4ccccc4)n3)c(=O)[nH]c2c1 [Example 8763]
2,214 to 216 °C,"C=CCN(c1nc(-c2cc3ccccc3[nH]c2=O)cs1)S(=O)(=O)c1ccccc1 [Example 8729, N-Allyl-N-[4-(2-oxo-1,2-dihydro-quinolin-3-yl)-thiazol-2-yl]-benzenesulfonamide]"
3,228 to 232 °C,"O=c1[nH]c2ccccc2cc1-c1csc(N(Cc2ccccc2)S(=O)(=O)c2ccccc2)n1 [Example 8728, N-Benzyl-N-[4-(2-oxo-1,2-dihydro-quinolin-3-yl)-thiazol-2-yl]-benzenesulfonamide]"
4,> 300 °C,"CS(=O)(=O)c1ccc(-c2csc(-c3cc4ccccc4[nH]c3=O)n2)cc1 [Example 112, 3-{4-[4-(Methylsulfonyl)phenyl]-1,3-thiazol-2-yl}hydroquinolin-2-one]"
5,241 to 243 °C,"O=c1[nH]c2ccccc2cc1-c1csc(-c2ccncc2)n1 [Example 1, 3-[2-(4-Pyridyl)-4-thiazolyl]-2(1H)-quinolinone]"
6,200 to 202 °C,"CCN(CC)C(=O)c1ccc2cc(-c3csc(N(C)S(=O)(=O)c4ccccc4)n3)c(=O)[nH]c2c1 [Example 8767, N,N-Diethyl-3-(2-(methyl(phenylsulfonyl)amino)-1,3-thiazol-4-yl)-2-oxo-1,2-dihydro-7-quinolinecarboxamide]"
7,> 300 °C,"CN(c1nc(-c2cc3ccccc3[nH]c2=O)cs1)S(=O)(=O)c1cn(C)cn1 [Example 8732, N,1-Dimethyl-N-(4-(2-oxo-1,2-dihydro-3-quinolinyl)-1,3-thiazol-2-yl)-1H-imidazole-4-sulfonamide]"
8,277 to 278 °C (dec.),"O=c1[nH]c2ccccc2cc1-c1csc(Nc2ccccc2F)n1 [Example 78, 3-{2-[(2-Fluorophenyl)amino]-1,3-thiazol-4-yl}hydroquinolin-2-one]"
9,280 to 282 °C,"CN(c1nc(-c2cc3ccccc3[nH]c2=O)cs1)S(=O)(=O)c1ccc(Br)cc1 [Example 8730, 4-Bromo-N-methyl-N-[4-(2-oxo-1,2-dihydro-quinolin-3-yl)-thiazol-2-yl]-benzenesulfonamide]"
10,> 300 °C,"O=c1[nH]c2ccccc2cc1-c1csc(NS(=O)(=O)c2ccccc2)n1 [Example 70, 3-{2-[(Phenylsulfonyl)amino]-1,3-thiazol-4-yl}hydroquinolin-2-one]"
11,> 300 °C,"CCNC(=O)c1ccc2cc(-c3csc(N(C)S(=O)(=O)c4ccccc4)n3)c(=O)[nH]c2c1 [Example 8766, 3-[2-(Benzenesulfonyl-methyl-amino)-thiazol-4-yl]-2-oxo-1,2-dihydro-quinoline-7-carboxylic acid ethylamide]"
12,> 300 °C,"CN(C(=O)c1ccccc1)c1nc(-c2cc3ccccc3[nH]c2=O)cs1 [Example 76, N-Methyl-N-[4-(2-oxo(3-hydroquinolyl))(1,3-thiazol-2-yl)]benzamide]"
13,309 to 311 °C (dec.),"O=C(Nc1nc(-c2cc3ccccc3[nH]c2=O)cs1)c1ccccc1 (as salt: HCl) [Example 71, N-[4-(2-Oxo(3-hydroquinolyl))(1,3-thiazol-2-yl)]benzamide]"
14,247 to 249 °C,"CN(c1nc(-c2cc3ccccc3[nH]c2=O)cs1)S(=O)(=O)c1cccc(F)c1 [Example 8731, 3-Fluoro-N-methyl-N-[4-(2-oxo-1,2-dihydro-quinolin-3-yl)-thiazol-2-yl]-benzenesulfonamide]"
15,> 300 °C,"O=c1[nH]c2ccccc2cc1-c1csc(NS(=O)(=O)c2ccc(Cl)cc2)n1 [Example 8789, 4-Chloro-N-(4-(2-oxo-1,2-dihydro-3-quinolinyl)-1,3-thiazol-2-yl)benzenesulfonamide]"
